Measurements as given in patent publication US10793542B2, “Hetroarylamine compounds for modulating the hedgehog pathway and preparing method and uses thereof” (DEVELOPMENT CENTER FOR BIOTECHNOLOGY, priority 2016, dated 2020).

Tests used:
Assay type in all cases: cell-based
[1] = test system: hedgehog pathway (pGL3-7xGli-Luciferase reporter in C3H10T1/2 cells); experiment: Transient transfection of C3H10T1/2 and Gli-Luc reporter assay with SAG stimulation; settings: Mus musculus, C3H 10T1/2, SAG 20 nM, 48 hr, read-out: Inhibition of Gli-Luc expression [IC50
Protocol: A cell-based screen for inhibitors of the hedgehog pathway was performed using a transient transfection system in C3H10T1/2 cells with pGL3-7xGli-Luciferase reporter plasmids C3H10T1/2 cells (ATCC, cat.#CCL-226) were seeded into 6-well plates at 8×10^4 cells/well in a BME medium containing 10% heat-inactivated FBS. Cells were transfected the next morning with 500 ng/well pGL3-7xGli-Luciferase reporter plasmids and 100 ng/well pRL-TK Renilla luciferase reporter plasmids (Promega)using GeneJuice transfection reagent (Novagene). After 24 h, transfected cells were collected by trypsin treatment and re-plated in 96-well plates in an RPMI medium containing 0.5% FBS with a density of 1.5×10^4 cells/well. Compounds were dissolved in DMSO with serial dilutions and were then added to the assay plate. SAG (Hh-Ag 1.3) (Santa Cruz) was added to the assay plated for a final concentration 20 nM. The assay plates were incubated at 37° C. for 48 hr.
(§1) Firefly luciferase and Renilla luciferase activity was determined using the Dual-Glo Luciferase reporter assay system (Promega) with a Victor3 plate reader (PerkinElmer Life Sciences). Firefly luciferase readings were normalized to Renilla luciferase to correct for transfection efficiency. Luminance reading for the C3H10T1/2-Gli-Luc assay was normalized based on DMSO control with SAG stimulation (100% pathway activity) and without SAG stimulation (0% pathway activity). IC50 values, defined as the inflection point of the logistic curve, were determined by nonlinear regression using the Prism 5 software (GraphPad).

Smo wild type = molecular target: T1, Smo wild type (Homo sapiens, UniProt Q99835); experiment: Reporter assay of C3H10T1/2-Gli-Luc cells transfected with wild-type Smo, without SAG; settings: C3H10T1/2 cells transfected with pLPCX-SMO, no SAG, 48 hr; read-out: Inhibition of C3H10T1/2-Gli-Luc-Smo-WT [IC50
T1 construct: expressed in transfected cells; host or cells: C3H10T1/2 cells (ATCC CCL-226), transient transfection with pLPCX-SMO
Protocol: (§2) A transient transfection system with a Smo wild type or a Smo D473H mutant was also used for compound screening. For the SMO inhibition experiments, cells were transfected with an additional 500 ng/well of wild-type or D473H-mutant type SMO construct (pLPCX-SMO or pLPCX-SMO-D473H). After 24 h, transfected cells were collected by trypsin treatment and re-plated in 96-well plates in an RPMI medium containing 0.5% FBS with a density of 1.5×10^4 cells/well. Compounds were dissolved in DMSO with serial dilutions and were then added to the assay plate. The assay plates were incubated at 37° C. for 48 hr.
as §1
(§3) The reporter assay of C3H10T1/2-Gli-Luc cells transfected with a wild-type, D473H mutant Smo mutant was carried out with the same protocol but without SAG stimulation. Luminance reading for the SMO inhibition experiments assay was normalized based on DMSO control (100% of the pathway activity) and a known Smo antagonist (ALLO-2 at 10 μM, 0% of the pathway activity).

Smo D473H mutant = molecular target: T2, Smo D473H mutant (Homo sapiens, UniProt Q99835, D473H); experiment: Reporter assay of C3H10T1/2-Gli-Luc cells transfected with Smo D473H mutant, without SAG; settings: C3H10T1/2 cells transfected with pLPCX-SMO-D473H, no SAG, 48 hr; read-out: Inhibition of C3H10T1/2-Gli-Luc-Smo-D473H [IC50
T2 construct: expressed in transfected cells; host or cells: C3H10T1/2 cells (ATCC CCL-226), transient transfection with pLPCX-SMO-D473H
Protocol: as §2, §1, §3

T2 sequence (Q99835 28-787 D473H): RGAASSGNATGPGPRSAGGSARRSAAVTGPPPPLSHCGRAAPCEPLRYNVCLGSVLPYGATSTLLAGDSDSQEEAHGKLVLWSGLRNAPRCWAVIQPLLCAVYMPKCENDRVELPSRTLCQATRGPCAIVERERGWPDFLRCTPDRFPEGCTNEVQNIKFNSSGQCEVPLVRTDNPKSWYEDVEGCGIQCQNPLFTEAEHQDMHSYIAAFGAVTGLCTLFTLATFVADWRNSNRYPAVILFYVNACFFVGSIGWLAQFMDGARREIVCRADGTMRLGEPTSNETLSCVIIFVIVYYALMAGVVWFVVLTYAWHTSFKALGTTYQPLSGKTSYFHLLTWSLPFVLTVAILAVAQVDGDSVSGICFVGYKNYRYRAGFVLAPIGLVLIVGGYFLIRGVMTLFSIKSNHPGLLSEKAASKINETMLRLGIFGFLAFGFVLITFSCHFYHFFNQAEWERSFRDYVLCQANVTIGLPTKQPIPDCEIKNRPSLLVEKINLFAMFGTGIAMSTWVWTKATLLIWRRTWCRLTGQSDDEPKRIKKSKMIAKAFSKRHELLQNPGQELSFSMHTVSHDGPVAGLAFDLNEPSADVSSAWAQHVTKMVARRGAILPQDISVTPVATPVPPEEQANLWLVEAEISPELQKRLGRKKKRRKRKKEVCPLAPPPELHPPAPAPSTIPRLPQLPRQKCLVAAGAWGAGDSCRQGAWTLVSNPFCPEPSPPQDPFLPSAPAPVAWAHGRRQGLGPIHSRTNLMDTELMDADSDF
T1 sequence (Q99835 28-787): as the sequence (Q99835 28-787 D473H) above, with H446D counted along it

Compound | IC50 [1] [nM] | IC50 (Smo wild type) [nM] | IC50 (Smo D473H mutant) [nM]
COc1ccc(CN2CCOCC2)cc1NC(=O)c1ccc(Nc2ncc(SC)c(-c3ccc(F)cc3)n2)cc1 [Compound 59, 4-[4-(4-Fluoro-phenyl)-5-methylsulfanyl-pyrimidin-2-ylamino]-N-(2-methoxy-5-morpholin-4-ylmethyl-phenyl)-benzamide] | 100 to 1000 | 100 to 1000 | 100 to 1000
CSc1cnc(Nc2ccc(C(=O)Nc3c(C)cccc3C)cc2)nc1-c1ccc(F)cc1 [Compound 29, N-(2,6-Dimethyl-phenyl)-4-[4-(4-fluoro-phenyl)-5-methylsulfanyl-pyrimidin-2-ylamino]-benzamide] | 100 to 1000 | 100 to 1000 | 100 to 1000
CSc1cnc(Nc2ccc(C(=O)Nc3cc(CN(C)C)ccc3C)cc2)nc1-c1ccc(C#N)cc1 [Compound 34, 4-[4-(4-Cyano-phenyl)-5-methylsulfanyl-pyrimidin-2-ylamino]-N-(5-dimethylaminomethyl-2-methyl-phenyl)-benzamide] | < 100 | 100 to 1000 | 100 to 1000
CSc1cnc(Nc2ccc(C(=O)Nc3c(C)cccc3C)cc2)nc1-c1ccc(OC(F)(F)F)cc1 [Compound 1, N-(2,6-Dimethyl-phenyl)-4-[5-methylsulfanyl-4-(4-trifluoromethoxy-phenyl) -pyrimidin-2-ylamino]-benzamide] | 100 to 1000 | 100 to 1000 | > 1000
CSc1cnc(Nc2ccc(C(=O)Nc3c(C)cccc3C)cc2)nc1-c1ccc(C#N)cc1 [Compound 2, 4-[4-(4-Cyano-phenyl)-5-methylsulfanyl-pyrimidin-2-ylamino]-N-(2,6-dimethyl-phenyl)-benzamide] | 100 to 1000 | 100 to 1000 | 100 to 1000
CCN(CC)Cc1cccc(NC(=O)c2ccc(Nc3ncc(SC)c(-c4ccc(OC(F)(F)F)cc4)n3)c(F)c2)c1 [Compound 56, N-(3-Diethylaminomethyl-phenyl)-3-fluoro-4-[5-methylsulfanyl-4-(4-trifluoromethoxy-phenyl)-pyrimidin-2-ylamino]-benzamide] | < 100 | < 100 | 100 to 1000
CCN(CC)Cc1ccc(C)c(NC(=O)c2ccc(Nc3ncc(OC)c(-c4ccc(OC(F)(F)F)cc4)n3)c(F)c2)c1 [Compound 61, N-(5-Diethylaminomethyl-2-methyl-phenyl)-3-fluoro-4-[5-methoxy-4-(4-trifluoromethoxy-phenyl)-pyrimidin-2-ylamino]-benzamide] | < 100 | < 100 | 100 to 1000
CSc1cnc(Nc2ccc(C(=O)Nc3cc(CN4CCN(C)CC4)ccc3C)cc2F)nc1-c1cnn(C)c1 [Compound 46, 3-Fluoro-N-[2-methyl-5-(4-methyl-piperazin-1-ylmethyl)-phenyl]-4-[4-(1-methyl-1H-pyrazol-4-yl)-5-methylsulfanyl-pyrimidin-2-ylamino]-benzamide] | < 100 | < 100 | 100 to 1000
COc1cccc(C)c1NC(=O)c1ccc(Nc2ncc(SC)c(-c3cccnc3F)n2)cc1 [Compound 14, 4-[4-(2-Fluoro-pyridin-3-yl)-5-methylsulfanyl-pyrimidin-2-ylamino]-N-(2-methoxy-6-methyl-phenyl)-benzamide] | < 100 | 100 to 1000 | 100 to 1000
CSc1cnc(Nc2ccc(C(=O)Nc3cc(CN4CCOCC4)ccc3F)cc2)nc1-c1ccc(OC(F)(F)F)cc1 [Compound 70, N-(2-Fluoro-5-morpholin-4-ylmethyl-phenyl)-4-[5-methylsulfanyl-4-(4-trifluoromethoxy-phenyl)-pyrimidin-2-ylamino]-benzamide] | < 100 | < 100 | < 100
CSc1cnc(Nc2ccc(C(=O)Nc3cc(CN4CCOCC4)ccc3C)cn2)nc1-c1ccc(OC(F)(F)F)cc1 [Compound 63, N-(2-Methyl-5-morpholin-4-ylmethyl-phenyl)-6-[5-methylsulfanyl-4-(4-trifluoromethoxy-phenyl)-pyrimidin-2-ylamino]-nicotinamide] | < 100 | < 100 | < 100
CCOc1cnc(Nc2ccc(C(=O)Nc3cc(CN(CC)CC)ccc3C)cc2)nc1-c1ccc(OC(F)(F)F)cc1 [Compound 74, N-(5-Diethylaminomethyl-2-methyl-phenyl)-4-[5-ethoxy-4-(4-trifluoromethoxy-phenyl)-pyrimidin-2-ylamino]-benzamide] | < 100 | < 100 | 100 to 1000
COc1cnc(Nc2ccc(C(=O)Nc3cc(CN4CCN(C)CC4)ccc3C)cc2)nc1-c1ccc(C#N)cc1 [Compound 51, 4-[4-(4-Cyano-phenyl)-5-methoxy-pyrimidin-2-ylamino]-N-[2-methyl-5-(4-methyl-piperazin-1-ylmethyl)-phenyl]-benzamide] | < 100 | < 100 | 100 to 1000
CSc1cnc(Nc2ccc(C(=O)Nc3cc(CN4CCOCC4)ccc3C)cc2)cc1-c1ccc(OC(F)(F)F)cc1 [Compound 81, N-(2-Methyl-5-morpholin-4-ylmethyl-phenyl)-4-[5-methylsulfanyl-4-(4-trifluoromethoxy-phenyl)-pyridin-2-ylamino)-benzamide] | < 100 | < 100 | < 100
CSc1cnc(Nc2ccc(C(=O)Nc3cc(CN4CCN(C)CC4)ccc3C)cc2)cc1-c1ccc(C(F)(F)F)cc1 [Compound 90, N-(2-methyl-5-((4-methylpiperazin-1-yl)methyl)phenyl)-4-((5-(methylthio)-4-(4-(trifluoromethyl)phenyl)pyridin-2-yl)amino)benzamide] | < 100 | < 100 | 100 to 1000
CSc1cnc(Nc2ccc(C(=O)Nc3cc(CN4CCN(C)CC4)ccc3C)cc2)cc1-c1ccc(F)cc1 [Compound 89, 4-((4-(4-fluorophenyl)-5-(methylthio)pyridin-2-yl)amino)-N-(2-methyl-5-((4-methylpiperazin-1-yl)methyl)phenyl)benzamide] | < 100 | < 100 | 100 to 1000
Cc1ccc(CN2CCOCC2)cc1NC(=O)c1ccc(Nc2ncc(N)c(-c3ccc(OC(F)(F)F)cc3)n2)cc1 [Compound 88, 4-((5-amino-4-(4-(trifluoromethoxy)phenyl)pyrimidin-2-yl)amino)-N-(2-methyl-5-(morpholinomethyl)phenyl)benzamide] | < 100 | < 100 | < 100
CSc1cnc(Nc2ccc(C(=O)Nc3ccccc3C)cc2)nc1-c1cccnc1F [Compound 11, 4-[4-(2-Fluoro-pyridin-3-yl)-5-methylsulfanyl-pyrimidin-2-ylamino]-N-o-tolyl-benzamide] | 100 to 1000 | 100 to 1000 | 100 to 1000
CCN(CC)Cc1ccc(C)c(NC(=O)c2ccc(Nc3ncc(OC)c(-c4ccc(C#N)cc4)n3)cc2)c1 [Compound 50, 4-[4-(4-Cyano-phenyl)-5-methoxy-pyrimidin-2-ylamino]-N-(5-diethylaminomethyl-2-methyl-phenyl)-benzamide] | < 100 | < 100 | 100 to 1000
CSc1cnc(Nc2ccc(C(=O)Nc3c(C)cccc3C)cc2)nc1-c1cccnc1F [Compound 6, N-(2,6-Dimethyl-phenyl)-4-[4-(2-fluoro-pyridin-3-yl)-5-methylsulfanyl-pyrimidin-2-ylamino]-benzamide] | < 100 | < 100 | < 100
COc1cccc(C)c1NC(=O)c1ccc(Nc2ncc(SC)c(-c3ccc(OC(F)(F)F)cc3)n2)cc1 [Compound 25, N-(2-Methoxy-6-methyl-phenyl)-4-[5-methylsulfanyl-4-(4-trifluoromethoxy-phenyl)-pyrimidin-2-ylamino]-benzamide] | 100 to 1000 | 100 to 1000 | 100 to 1000
